Source: US20240067651A1 (Biohaven Therapeutics Ltd., priority 2019, published 2024)
Each block holds one compound with its values, some of them ahead of it.

What was measured:
[1] = Caco-2 Permeability Assay; type: in vitro ADME, human; conditions: human
Outline: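 Bidirectional transport at 37 °C for 90 min, 10 μM donor concentration, with or without Pgp inhibitor, across 21-day Caco-2 monolayers with TEER >600 […] in HEPES-buffered HBSS, pH 7.4. LC-MS/MS of donor and receiver samples gives Papp, B→A/A→B efflux ratio and mass recovery.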

[2] = Stability in Simulated Gastric Fluid (SGF); type: in vitro ADME; parameters: key: % parent compound remaining relative to 0-minute sample
Outline: (§1)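 Percent of parent remaining relative to time zero was measured by LC-MS/MS over 0–60 min at 37 °C, 150 rpm. Test compound was 2 μg/mL final in pepsin-containing SGF, pH 1.2, or pancreatin-containing SIF, pH 6.8. Degradation half-life was derived from the log-linear decay where enough points allowed.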

Plasma Stability = type: in vitro ADME, human
Outline: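 Parent compound quantified by LC-MS/MS after acetonitrile precipitation, reported as percent of control remaining (triplicate). Incubation: 1 hour, 37° C, fresh human plasma, compound at 1 μM.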

[3] = Stability in Simulated Intestinal Fluid (SIF); type: in vitro ADME; parameters: key: % parent compound remaining relative to 0-minute sample
Outline: as §1

[4] = Caco-2, pH 7.4, Caco-2 monolayer
[5] = % remaining at 1 h in simulated gastric fluid
[6] = % remaining at 1 h in human plasma
[7] = % remaining at 1 h in simulated intestinal fluid
[8] = Caco-2, pH 7.4, donor 10 μM, 90 minutes, 37° C., direction not given
[9] = % remaining at 1 h, SGF with pepsin pH 1.2, 2 μg/mL, 37° C.
[10] = % remaining at 1 h, human plasma, 1 μM, 37° C.
[11] = % remaining at 1 h, SIF with pancreatin pH 6.8, 2 μg/mL, 37° C.
[12] = simulated gastric fluid, at 1 h
[13] = simulated intestinal fluid, at 1 h
[14] = bare number, unit or time not given
[15] = bare number, no % and no time given

Papp at 90 min, 10 µM [1, 4]: 24.9 ×10⁻⁶ cm/s
SGF [2, 5]: 85% remaining
human Plasma stability (Plasma Stability; [6]): 3% remaining
SIF [3, 7]: 17% remaining
Structure (SMILES): CC(C)OCCn1c(=S)[nH]c(=O)c2c1ccn2COC(=O)OC1CN(C(=O)OC(C)(C)C)C1 [Example 125]

Papp at 90 min, 10 µM ([1]; Caco-2, pH 7.4): 12.9 ×10⁻⁶ cm/s
SGF ([2]; % remaining @ 1 h): 100% @ 1 h
human Plasma stability (Plasma Stability; % remaining @ 1 h): 2% @ 1 h
SIF ([3]; % remaining @ 1 h): 70% @ 1 h
Structure (SMILES): CC(C)OCCn1c(=S)[nH]c(=O)c2c1ccn2COC(=O)[C@H](N)C(C)C [Example 300, trifluoroacetic acid {4-oxo-1-[2-(propan-2-yloxy)ethyl]-2-sulfanylidene-1H,2H,3H,4H,5H-pyrrolo[3,2-d]pyrimidin-5-yl}methyl (2R)-2-amino-3-methylbutanoate]

Papp at 90 min, 10 µM [1, 8]: 6.41 ×10⁻⁶ cm/s
SGF [2, 9]: 99%
human Plasma stability (Plasma Stability; [10]): 1%
SIF [3, 11]: 46%
Structure (SMILES): CC(C)OCCn1c(=S)[nH]c(=O)c2c1ccn2COC(=O)c1ccccc1 [Example 116, {4-oxo-1-[2-(propan-2-yloxy)ethyl]-2-sulfanylidene-1H, 2H,3H,4H,5H-pyrrolo[3,2-d]pyrimidin-5-yl}methylbenzoate]

Papp at 90 min, 10 µM [1, 4]: < 0.339 ×10⁻⁶ cm/s
SGF [2, 12]: 13% remaining
human Plasma stability (Plasma Stability; human plasma, at 1 h): 1% remaining
SIF [3, 13]: 1% remaining
Structure (SMILES): CC(C)OCCn1c(=S)[nH]c(=O)c2c1ccn2COC(=O)Oc1ccccc1F [Example 238]

Papp at 90 min, 10 µM [1, 4]: 28.4 ×10⁻⁶ cm/s
SGF [2, 12]: 89% remaining
human Plasma stability (Plasma Stability; human plasma, at 1 h): 98% remaining
SIF [3, 13]: 95% remaining
Structure (SMILES): CC(C)OCCn1c(SCOC(=O)N(C)c2ccccc2Cl)nc(=O)c2c1ccn2COC(=O)N(C)c1ccccc1Cl [Example 249]

Papp at 90 min, 10 µM [1, 8]: 6.53 ×10⁻⁶ cm/s
SGF [2, 15]: 95
human Plasma stability (Plasma Stability; [10]): 99% remaining
SIF [3, 15]: 80
Structure (SMILES): CC(C)OCCn1c(=S)n(COC(=O)N(CC(F)(F)F)CC(F)(F)F)c(=O)c2c1ccn2COC(=O)N(CC(F)(F)F)CC(F)(F)F [Example 98, [3-({[bis(2,2,2-trifluoroethyl)carbamoyl]oxy}methyl)-4-oxo-1-[2-(propan-2-yloxy)ethyl]-2-sulfanylidene-1H, 2H,3H,4H,5H-pyrrolo[3,2-d]pyrimidin-5-yl]methyl N,N-bis(2,2,2-trifluoroethyl)carbamate]

Papp at 90 min, 10 µM [1, 8]: 14.2 ×10⁻⁶ cm/s
SGF [2, 9]: 98% remaining
human Plasma stability (Plasma Stability; [10]): 1% remaining
SIF [3, 11]: 99% remaining
Structure (SMILES): CC(C)OCCn1c(SCOC(=O)OC(C)C)nc(=O)c2c1ccn2COC(=O)OC(C)C [Example 91, {4-oxo-2-[{{[(propan-2-yloxy)carbonyl]oxy}methyl)sulfanyl]-1-[2-(propan-2-yloxy)ethyl]-1H,4H,5H-pyrrolo[3,2-d]pyrimidin-5-yl}methyl propan-2-yl carbonate]

Papp at 90 min, 10 µM [1, 4]: 5.78 ×10⁻⁶ cm/s
SGF ([2]; simulated gastric fluid, @ 1 h): 82% @ 1 h
human Plasma stability (Plasma Stability; human plasma, @ 1 h): 26% @ 1 h
SIF ([3]; simulated intestinal fluid, @ 1 h): 1% @ 1 h
Structure (SMILES): CC(C)OCCn1c(=S)n(COC(=O)CNC(=O)OC(C)(C)C)c(=O)c2c1ccn2COC(=O)CNC(=O)OC(C)(C)C [Example 283]

Papp at 90 min, 10 µM [1, 8]: 31.7 ×10⁻⁶ cm/s
SGF [2, 9]: 94%
human Plasma stability (Plasma Stability; [10]): 90%
SIF [3, 11]: 98%
Structure (SMILES): CC(C)OCCn1c2nc(=O)c3c1ccn3COC(=O)C(C)(C)CCCCC(C)(C)C(=O)OCS2 [Example 119, 8,8,13,13-Tetramethyl-22-[2-(propan-2-yloxy)ethyl]-6,15-dioxa-17-thia-4,19,22-triazatricyclo[16.3.1.0^{4,21}]docosa-1(21),2,18-triene-7,14,20-trione]

Papp at 90 min, 10 µM [1, 4]: < 0.369 ×10⁻⁶ cm/s
SGF [2, 12]: 60% remaining
human Plasma stability (Plasma Stability; human plasma, at 1 h): 2% remaining
SIF [3, 13]: 1% remaining at
Structure (SMILES): CC(C)OCCn1c(=S)[nH]c(=O)c2c1ccn2COC(=O)Oc1ccc(F)cc1 [Example 235]

Papp at 90 min, 10 µM ([1]; Caco-2, pH 7.4, Caco-2 monolayer, the 17th table): 10.3 ×10⁻⁶ cm/s
SGF ([2]; % remaining at 1 h in simulated gastric fluid, the 17th table): 95% remaining
human Plasma stability (Plasma Stability; % remaining at 1 h in human plasma, the 17th table): 99% remaining
SIF ([3]; % remaining at 1 h in simulated intestinal fluid, the 17th table): 100% remaining
Structure (SMILES): CC(C)OCCn1c(=S)[nH]c(=O)c2c1ccn2C(=O)NCc1ccccc1 [Example 228]

More lines, now with the values behind:

Structure (SMILES): COC(=O)N1CCCC1C(=O)NCCCCC(=O)OCn1ccc2c1c(=O)[nH]c(=S)n2CCOC(C)C.O=C(O)C(F)(F)F (stereo not shown) [Example 61]
Papp at 90 min, 10 µM [1, 4]: 0.971 ×10⁻⁶ cm/s
SGF [2, 5]: 98% remaining
human Plasma stability (Plasma Stability; [6]): 0% remaining
SIF [3, 7]: 92% remaining

Structure (SMILES): CC(C)OCCn1c(=S)n(COC(=O)[C@H](N)Cc2ccccc2)c(=O)c2c1ccn2COC(=O)[C@H](N)Cc1ccccc1.O=C(O)C(F)(F)F.O=C(O)C(F)(F)F [Example 313, bis(trifluoroacetic acid) [3-({[(2R)-2-amino-3-phenylpropanoyl]oxy}methyl)-4-oxo-1-[2-(propan-2-yloxy)ethyl]-2-sulfanylidene-1H,2H,3H,4H,5H-pyrrolo[3,2-d]pyrimidin-5-yl]methyl (2R)-2-amino-3-phenylpropanoate]
Papp at 90 min, 10 µM ([1]; Caco-2, pH 7.4): 0.49 ×10⁻⁶ cm/s
SGF ([2]; % remaining @ 1 h): 88% @ 1 h
human Plasma stability (Plasma Stability; % remaining @ 1 h): 99% @ 1 h
SIF ([3]; % remaining @ 1 h): 51% @ 1 h

Structure (SMILES): CCOC(=O)N1CCCC1C(=O)NCCCCC(=O)OCn1ccc2c1c(=O)[nH]c(=S)n2CCOC(C)C.O=C(O)C(F)(F)F (stereo not shown) [Example 65]
Papp at 90 min, 10 µM [1, 4]: 1.86 ×10⁻⁶ cm/s
SGF [2, 5]: 87% remaining
human Plasma stability (Plasma Stability; [6]): 20% remaining
SIF [3, 7]: 89% remaining

Structure (SMILES): CCOC(=O)N1CCCC1C(=O)NCCC(=O)OCn1ccc2c1c(=O)[nH]c(=S)n2CCOC(C)C.O=C(O)C(F)(F)F (stereo not shown) [Example 66]
Papp at 90 min, 10 µM [1, 4]: 0.736 ×10⁻⁶ cm/s
SGF [2, 5]: 96% remaining
human Plasma stability (Plasma Stability; [6]): 75% remaining
SIF [3, 7]: 80% remaining

Structure (SMILES): CC(C)OCCn1c(=S)[nH]c(=O)c2c1ccn2COC(=O)CCNC(=O)CN(C)C(=O)CNC(=O)OC(C)(C)C.O=C(O)C(F)(F)F [Example 58]
Papp at 90 min, 10 µM [1, 4]: 0.287 ×10⁻⁶ cm/s
SGF [2, 5]: 77% remaining
human Plasma stability (Plasma Stability; [6]): 49% remaining
SIF [3, 7]: 84% remaining

Structure (SMILES): CC(C)OCCn1c(SCOC(=O)N(C)C(C)(C)C)nc(=O)c2[nH]ccc21.O=C(O)C(F)(F)F [Example 167]
Papp at 90 min, 10 µM [1, 4]: 17.8 ×10⁻⁶ cm/s
SGF ([2]; % @ 1 h (remaining) in simulated gastric fluid): 99% @ 1 h
human Plasma stability (Plasma Stability; % @ 1 h (remaining) in human plasma): 98% @ 1 h
SIF ([3]; % @ 1 h (remaining) in simulated intestinal fluid): 99% @ 1 h

Structure (SMILES): CC(C)C[C@H](N)C(=O)OCn1ccc2c1c(=O)[nH]c(=S)n2CCOC(C)C.O=C(O)C(F)(F)F [Example 320, trifluoroacetic acid {4-oxo-1-[2-(propan-2-yloxy)ethyl]-2-sulfanylidene-1H,2H,3H,4H,5H-pyrrolo[3,2-d]pyrimidin-5-yl}methyl (2S)-2-amino-4-methylpentanoate]
Papp at 90 min, 10 µM ([1]; Caco-2, pH 7.4): < 0.259 ×10⁻⁶ cm/s
SGF ([2]; % remaining @ 1 h): 48%@ 1 h
human Plasma stability (Plasma Stability; % remaining @ 1 h): 98%@ 1 h
SIF ([3]; % remaining @ 1 h): 42%@ 1 h

Structure (SMILES): CC(C)OCCn1c(=S)[nH]c(=O)c2c1ccn2COC(=O)CCCCOC(=O)[C@H](N)Cc1ccccc1.O=C(O)C(F)(F)F [Example 341, trifluoroacetic acid {4-oxo-1-[2-(propan-2-yloxy)ethyl]-2-sulfanylidene-1H,2H,3H,4H,5H-pyrrolo[3,2-d]pyrimidin-5-yl}methyl 5-{[(2R)-2-amino-3-phenylpropanoyl]oxy}pentanoate]
Papp at 90 min, 10 µM ([1]; Caco-2, pH 7.4): 0.259 ×10⁻⁶ cm/s
SGF [2, 14]: 99
human Plasma stability (Plasma Stability; % remaining @ 1 h): 1% remaining
SIF [3, 14]: 33

Structure (SMILES): CC(C)C[C@H](NC(=O)OC(C)(C)C)C(=O)NCCCCC(=O)OCn1ccc2c1c(=O)[nH]c(=S)n2CCOC(C)C [Example 26]
Papp at 90 min, 10 µM [1, 4]: 12.7 ×10⁻⁶ cm/s
SGF [2, 5]: 99% remaining
human Plasma stability (Plasma Stability; [6]): 32% remaining
SIF [3, 7]: 66% remaining

Structure (SMILES): CC(C)OCCn1c(=S)[nH]c(=O)c2c1ccn2COC(=O)CCCCOC(=O)[C@@H](N)Cc1ccccc1.O=C(O)C(F)(F)F [Example 340, trifluoroacetic acid {4-oxo-1-[2-(propan-2-yloxy)ethyl]-2-sulfanylidene-1H,2H,3H,4H,5H-pyrrolo[3,2-d]pyrimidin-5-yl}methyl 5-{[(2S)-2-amino-3-phenylpropanoyl]oxy}pentanoate]
Papp at 90 min, 10 µM ([1]; Caco-2, pH 7.4): 0.644 ×10⁻⁶ cm/s
SGF [2, 14]: 100
human Plasma stability (Plasma Stability; % remaining @ 1 h): 4% remaining
SIF [3, 14]: 99

Structure (SMILES): COCCOCCN(C)C(=O)OCSc1nc(=O)c2[nH]ccc2n1CCOC(C)C [Example 88, ({4-Oxo-1-[2-(propan-2-yloxy)ethyl]-1H,4H,5H-pyrrolo[3,2-d]pyrimidin-2-yl}sulfanyl)methyl N-[2-(2-methoxyethoxy)ethyl]-N-methylcarbamate]
Papp at 90 min, 10 µM [1, 8]: 0.751 ×10⁻⁶ cm/s
SGF [2, 9]: 99%
human Plasma stability (Plasma Stability; [10]): 100%
SIF [3, 11]: 64%
